In ChEMBL document CHEMBL1142130, “Quinolone resistance in Helicobacter pylori isolates in Germany” (2007) one finds MIC data, which are given here for one molecule.

Common to all, as to format: functional
Experiment [1] has as its system Helicobacter pylori. Kind of experiment: Antimicrobial activity against ciprofloxacin-resistant Helicobacter pylori 14 containing gyrA A272G mutation by Etest method.
Experiment [2] has as its system Helicobacter pylori. Kind of experiment: Antimicrobial activity against ciprofloxacin-resistant Helicobacter pylori 26 containing gyrA C261A mutation by Etest method.
In experiment [3] the test system is Helicobacter pylori. Put plainly: Antimicrobial activity against ciprofloxacin-resistant Helicobacter pylori 4 containing gyrA C261G mutation by Etest method.
Experiment [4] relates to Helicobacter pylori. Put plainly: Antimicrobial activity against ciprofloxacin-resistant Helicobacter pylori 12 containing gyrA G271A mutation by Etest method.
Experiment [5] concerns Helicobacter pylori. Put plainly: Antimicrobial activity against ciprofloxacin-resistant Helicobacter pylori 4 containing gyrA G271T mutation by Etest method.

In brackets after ≈: the same amount, converted by molar mass.

In general, MIC refers to the lowest concentration found to suppress growth. A lower MIC goes with greater potency. For the molecule `O=C(O)c1cn(C2CC2)c2cc(N3CCNCC3)c(F)cc2c1=O` [CIPROFLOXACIN], the MIC in the experiment on Helicobacter pylori [1] is 16 µg/mL (≈ 48.3 µM); in the experiment on Helicobacter pylori [2], 4 µg/mL (≈ 12.1 µM); against Helicobacter pylori [3] it was 4 µg/mL (≈ 12.1 µM); against Helicobacter pylori [4] it was 16 µg/mL (≈ 48.3 µM); in the experiment with Helicobacter pylori [5], 8 µg/mL (≈ 24.1 µM).
